Drawing on ChEMBL document CHEMBL1144372, “Novel 2-amino-4-oxo-5-arylthio-substituted-pyrrolo[2,3-d]pyrimidines as nonclassical antifolate inhibitors of thymidylate synthase” (Bioorg Med Chem Lett, 2005), this text covers IC50 and GI50 for 17 molecules.

One assay deals with T1, Dihydrofolate reductase (Homo sapiens, UniProt P00374).
T1 sequence (P00374 whole entry): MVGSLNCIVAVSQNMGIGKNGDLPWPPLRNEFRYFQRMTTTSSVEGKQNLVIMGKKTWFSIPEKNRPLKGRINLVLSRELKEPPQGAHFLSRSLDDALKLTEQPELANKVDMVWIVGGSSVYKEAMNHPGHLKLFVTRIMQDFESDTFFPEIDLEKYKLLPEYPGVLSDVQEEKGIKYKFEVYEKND
Nature of the assay: Inhibitory concentration against human dihydrofolate reductase.

The nature of assay [1]: Inhibitory concentration against Escherichia coli dihydrofolate reductase.
For assay [2], the target named is Thymidylate synthase (Homo sapiens, UniProt P04818).
Thymidylate synthase (Homo sapiens, UniProt P04818), sequence (P04818 whole entry): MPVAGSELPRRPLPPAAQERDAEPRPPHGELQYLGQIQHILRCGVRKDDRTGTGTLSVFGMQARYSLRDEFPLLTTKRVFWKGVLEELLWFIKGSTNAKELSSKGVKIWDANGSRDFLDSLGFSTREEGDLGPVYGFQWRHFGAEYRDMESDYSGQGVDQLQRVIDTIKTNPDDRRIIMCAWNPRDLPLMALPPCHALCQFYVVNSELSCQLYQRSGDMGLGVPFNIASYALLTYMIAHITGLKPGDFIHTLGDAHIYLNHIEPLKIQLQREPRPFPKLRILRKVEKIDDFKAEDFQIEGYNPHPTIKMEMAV
Description: Inhibitory concentration against human thymidylate synthase
Assay [3] concerns the target Thymidylate synthase (Escherichia coli, UniProt C3SWJ7). Kind of assay: Inhibitory concentration against Escherichia coli thymidylate synthase.
A further assay relates to MDA-MB-231. Kind of assay: Growth inhibitory concentration against human MDA-MB-231 cells. In kind it is functional.
For another assay, the system named is HT-29. Kind of assay: Growth inhibitory concentration against human HT-29 cells. In kind it is functional.
The test system of another assay is MOLT-4. Kind of assay: Growth inhibitory concentration against human MOLT-4 cells. In kind it is functional.

Thymidylate synthase (Escherichia coli, UniProt C3SWJ7), sequence (C3SWJ7 whole entry): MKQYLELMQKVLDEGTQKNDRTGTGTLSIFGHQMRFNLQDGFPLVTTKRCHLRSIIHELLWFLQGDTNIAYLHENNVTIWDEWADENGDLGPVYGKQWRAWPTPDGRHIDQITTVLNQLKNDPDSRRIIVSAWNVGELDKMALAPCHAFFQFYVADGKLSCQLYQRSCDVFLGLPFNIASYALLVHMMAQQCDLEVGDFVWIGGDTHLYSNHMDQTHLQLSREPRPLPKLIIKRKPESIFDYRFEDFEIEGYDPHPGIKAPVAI

Regarding `Cc1[nH]c2nc(N)nc(O)c2c1Sc1ccc(Br)cc1`, the IC50 on Dihydrofolate reductase was more than 28 µM; in assay [1], 2.8 µM; against Thymidylate synthase [2] it was 0.46 µM.
The like results for `Cc1[nH]c2nc(N)nc(O)c2c1Sc1ccc(C#N)cc1` were, in that order, more than 34 µM, more than 34 µM and 0.28 µM.
Take `Cc1[nH]c2nc(N)nc(O)c2c1Sc1ccc(F)c(F)c1`: the IC50 is more than 32 µM at Dihydrofolate reductase, more than 32 µM in assay [1] and 0.9 µM at Thymidylate synthase [2].
Consider `Cc1[nH]c2nc(N)nc(O)c2c1Sc1ccc(Br)c(Cl)c1`, for which the IC50 against Dihydrofolate reductase was more than 26 µM; in assay [1], more than 26 µM; against Thymidylate synthase [2] it was 0.22 µM.
With `Cc1[nH]c2nc(N)nc(O)c2c1Sc1cc(F)cc(F)c1`, the IC50 against Dihydrofolate reductase is more than 32 µM; in assay [1], more than 32 µM; against Thymidylate synthase [2], 2.7 µM.
Turning to `Cc1[nH]c2nc(N)nc(O)c2c1Sc1cccc(F)c1`, the IC50 against Thymidylate synthase [3] is more than 28 µM; in assay [1], more than 33 µM; against Thymidylate synthase [2], 2.8 µM.
Regarding `Cc1[nH]c2nc(N)nc(O)c2c1Sc1ccc(F)cc1`, the IC50 at Dihydrofolate reductase is more than 32 µM; in assay [1] it was more than 33 µM; against Thymidylate synthase [2], 1.4 µM.
Take `Cc1[nH]c2nc(N)nc(O)c2c1Sc1ccc(F)c(Cl)c1`: the IC50 was more than 31 µM against Dihydrofolate reductase, more than 31 µM in assay [1] and 0.83 µM against Thymidylate synthase [2].
Turning to `Cc1[nH]c2nc(N)nc(O)c2c1Sc1cc(Cl)cc(Cl)c1`, the figures for the IC50 (at Thymidylate synthase [3]; in assay [1]; at Thymidylate synthase [2]) were more than 24 µM, more than 29 µM and 2.4 µM, respectively.
Consider `Cc1[nH]c2nc(N)nc(O)c2c1Sc1cccc(Br)c1`, for which the IC50 is more than 24 µM against Thymidylate synthase [3], more than 28 µM in assay [1] and 1.2 µM against Thymidylate synthase [2].
The like results for `Cc1[nH]c2nc(N)nc(O)c2c1Sc1cc([N+](=O)[O-])cc([N+](=O)[O-])c1` were, in that order, more than 23 µM, more than 27 µM and 23 µM.
With `Cc1[nH]c2nc(N)nc(O)c2c1Sc1cc(C(F)(F)F)cc(C(F)(F)F)c1`, the IC50 at Dihydrofolate reductase was more than 25 µM; in assay [1] it was more than 25 µM; against Thymidylate synthase [2] it was more than 21 µM.
As for `Cc1[nH]c2nc(N)nc(O)c2c1Sc1ccc(OC(F)(F)F)cc1`, the IC50 at Thymidylate synthase [3] was more than 23 µM; in assay [1], more than 28 µM; at Thymidylate synthase [2], 2.3 µM.
Turning to `Cc1[nH]c2nc(N)nc(O)c2c1Sc1ccc(Br)c([N+](=O)[O-])c1`, the GI50 with MDA-MB-231 is 3.28 µM; in the assay on MDA-MB-231 (Homo sapiens, MDA-MB-231) it was 6.55 µM; in the assay on HT-29, 6.18 µM; in the assay with MOLT-4 it was 4.23 µM. The IC50 was 11 µM on Thymidylate synthase [3], more than 25 µM in assay [1] and 0.21 µM at Thymidylate synthase [2].
On to `Cc1[nH]c2nc(N)nc(O)c2c1Sc1ccc(C(F)(F)F)cc1`, for which the IC50 is more than 29 µM against Dihydrofolate reductase, more than 29 µM in assay [1] and 0.8 µM against Thymidylate synthase [2].
Consider `Cc1[nH]c2nc(N)nc(O)c2c1Sc1ccc(Cl)c([N+](=O)[O-])c1`, for which the figures for the IC50 (on Thymidylate synthase [3]; in assay [1]; on Thymidylate synthase [2]) were 23 µM, more than 28 µM and 0.46 µM, respectively.
As to `Cc1[nH]c2nc(N)nc(O)c2c1Sc1cccc(Cl)c1`, the IC50 at Dihydrofolate reductase is more than 32 µM; in assay [1], more than 33 µM; at Thymidylate synthase [2] it was 1.4 µM.
